Measured values: US10870654B2, “Pharmaceutically acceptable salts and polymorphic forms of hydrocodone benzoic acid enol ester and processes for making same” (KemPharm, Inc., priority 2013, dated 2020)
Like-named read-outs stand apart in the source and are kept apart here.

Assays:
[1] = Experimental: A number of experiments were performed to map out the relative stability of Forms I to V. Prior to the relative stability tests, the solids of Forms I, II and III were dried in the oven to remove surface water.
[2] = 37° C.; for water solubility: hydrochloride
Excerpt: Hydrocodone benzoic acid enol ester HCl exists in at least 6 distinct solid forms, designated herein as Forms I-V and amorphous. FIG. 1 is a scheme that depicts the general processes for converting hydrocodone benzoic acid enol ester HCl between its polymorphic forms I-V. Each polymorph has different characteristics, including solubility and stability.

[3] = RH>90% at room temperature; hydrochloride

Compound: COc1ccc2c3c1O[C@H]1C(OC(=O)c4ccccc4)=CC[C@@H]4[C@@H](C2)N(C)CC[C@@]341.Cl [I + II + III, hydrocodone benzoic acid enol ester hydrochloride]
- Form after 1 day slurry ([1]; solvent Acetonitrile, 25° C.): I + traces of II
- Form after 1 day slurry ([1]; solvent IPA, 25° C.): I + II
- Form after 1 day slurry ([1]; solvent IPA, 50° C.): I + II

Compound: COc1ccc2c3c1O[C@H]1C(OC(=O)c4ccccc4)=CC[C@@H]4[C@@H](C2)N(C)CC[C@@]341.Cl [Form II, hydrocodone benzoic acid enol ester hydrochloride]
- water solubility [2]: > 200 mg/mL
- water solubility relative to Form I ([2]; times higher than the solubility of Form I): 9 times
- relative stability of forms in slurry ([1]; in anhydrous organic solvents, especially at higher temperatures): the more stable one
- stability under high humidity [3]: hygroscopic and unstable, and converted to Form IV

Compound: COc1ccc2c3c1O[C@H]1C(OC(=O)c4ccccc4)=CC[C@@H]4[C@@H](C2)N(C)CC[C@@]341.Cl [Form III, hydrocodone benzoic acid enol ester hydrochloride]
- stability under high humidity [3]: hygroscopic and unstable, and converted to Form V

Compound: COc1ccc2c3c1O[C@H]1C(OC(=O)c4ccccc4)=CC[C@@H]4[C@@H](C2)N(C)CC[C@@]341.Cl [Form I, hydrocodone benzoic acid enol ester hydrochloride]
- water solubility [2]: about 24 mg/mL
- relative stability of forms in slurry ([1]; in water or organic solvents that contain water): always the most stable
- stability under high humidity [3]: stable for at least two weeks
